Like-named read-outs stand apart in the source and are kept apart here.
What was measured:
[1] = molecular target: human EBP (Homo sapiens (Human), UniProt Q15125); assay: Competition binding assay (SPA, [3H]-Ifenprodil) to determine compound affinity to EBP; details: read-out: hEBP SPA Ki
Method: Membrane preparation: To examine compound binding affinity to EBP, human EBP was overexpressed in human embryonic kidney 293 cells. Cell pellet was lysed in 10 times weight binding buffer (50 mM Tris, 5 mM MgCl2, 0.1 mM EDTA, lx protease inhibitor cocktail, pH 7.5) on ice by using a dounce homogenizer. The solution was centrifuged at 25,000 g for 50 min at 4° C. The membrane pellet was re-suspended in binding buffer and run through a 25 5/8 gauge needle. After checking the concentration by Bradford assay, the whole cell membrane solution was adjusted to 20 mg/mL and stored at −80° C.
This binding solution was centrifuged at 400 g for 5 minutes to collect the bead/membrane mixture. After re-suspending the pellet in binding buffer at the same calculated volume with 0.01% BSA (Sigma A1933), the bead/membrane mixture was added in 384-well low-binding surface plate (PerkinElmer Cat #6057480) at 25 μl/well. Radioligand at different concentrations with and without the non-radio-labeled same ligand 5 uM (for nonspecific and total signal, respectively) was added to bring final volume to 50 µl/well with DMSO concentration at 0.1%. At equilibrium (3 hours after ligand addition), radiometric signal CPM was counted by using a Microbeta2 microplate counter (Perkinelmer).
Competition binding assay to determine compound affinity: The same conditions of the radioligand Kd study were used for compound single dose percentage inhibition and equilibrium dissociation constant Ki examinations, except 50 nL compound DMSO stock was pre-added in 384-well low-binding surface plate (PerkinElmer Cat #6057480) by Echo 550 (Labcyte) to reach the final concentration for single dose test at 1 uM, and dose response test from 0.06 nM to 5 uM (8 dose, 5 times dilution). A pre-incubated bead/membrane mixture was added in compound plate at 0.3 mg beads and […] membrane per well. […] At equilibrium (3 hours after ligand addition), radiometric signal was counted as described above. The percentage inhibition of compound at each testing concentration was calculated by normalizing each condition's CPM readout to full block (5 uM non-radiolabeled ligand) and non-block (DMSO) control conditions. Compound binding inhibition IC50 was determined by nonlinear regression fitting of percentage inhibition plot against compound concentration. Compound Ki was calculated from the equation Ki=IC50/(1+[L]/Kd), which [L] was radioligand concentration used in assay. All tests had N bigger or equal to 2.

[2] = tested on: EpiSC-derived OPCs; assay: In vitro phenotypic screening of OPCs (MBP staining, high-content imaging); assay type: cell-based, mouse; details: percentage of MBP+ oligodendrocytes, 3 days, 0.5 nM to 1000 nM, read-out: OPC EC50
How it was run: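 Readout: high-content imaging of MBP immunostaining around DAPI nuclei, giving percent oligodendrocytes, with EC50 from a Levenberg-Marquardt Hill fit. Epiblast stem cell-derived OPCs were plated on laminin at 150,000/cm^2 in growth-factor-free N2B27. They were exposed 3 days to an 8-point series, 0.5-1000 nM final, in two or more independent platings.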

[3] = [3H]-Ifenprodil 10 nM, HEK293 membrane overexpressing human EBP, Ki=IC50/(1+[L]/Kd)

Sequence of human EBP (Q15125 whole entry): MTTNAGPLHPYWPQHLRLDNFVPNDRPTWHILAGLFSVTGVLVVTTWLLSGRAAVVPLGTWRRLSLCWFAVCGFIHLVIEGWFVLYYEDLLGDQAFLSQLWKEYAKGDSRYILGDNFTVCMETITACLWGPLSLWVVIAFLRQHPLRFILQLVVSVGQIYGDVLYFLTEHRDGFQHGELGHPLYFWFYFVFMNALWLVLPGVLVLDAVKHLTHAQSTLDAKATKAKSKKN

| Structure (SMILES) | Ki [1, 3] [nM] | EC50 ([2]; Mus musculus, 72 h) [nM] | EC50 [2] [nM] | Ki [1] [nM] |
| --- | --- | --- | --- | --- |
| CC(C)n1nc(C(F)(F)F)cc1[C@H]1CC[C@@H](N2CCC3(C2)CS(=O)(=O)C3)CC1 [Compound 8B, 6-((1s,4s)-4-(1-isopropyl-3-(trifluoromethyl)-1H-pyrazol-5-yl)cyclohexyl)-2-thia-6-azaspiro[3.4]octane 2,2-dioxide] | 21 | 240 |  |  |
| CCn1nc(-c2ccc(C(F)(F)F)nc2)nc1[C@H]1CC[C@H](N2CCC3(C2)CS(=O)(=O)C3)CC1 [36A*, 6-((1r,4r)-4-(1-Ethyl-3-(6-(trifluoromethyl)pyridin-3-yl)-1H-1,2,4-triazol-5-yl)cyclohexyl)-2-thia-6-azaspiro[3.4]octane 2,2-dioxide] | 40 | 73 |  |  |
| CC(C)n1nc(N2CC(F)(F)C2)cc1[C@H]1CC[C@H](N2CCC3(C2)CS(=O)(=O)C3)CC1 [Compound 35, 6-((1r,4r)-4-(3-(3,3-Difluoroazetidin-1-yl)-1-isopropyl-1H-pyrazol-5-yl)cyclohexyl)-2-thia-6-azaspiro[3.4]octane 2,2-dioxide] | 180 | 210 |  |  |
| Cn1nc(C(F)(F)F)cc1[C@H]1CC[C@H](N2CCC3(C2)CS(=O)(=O)C3)CC1 [Compound 2B, 6-((1r,4r)-4-(1-methyl-3-(trifluoromethyl)-1H-pyrazol-5-yl)cyclohexyl)-2-thia-6-azaspiro[3.4]octane 2,2-dioxide] | 20 | 48 |  |  |
| O=S1(=O)CC2(CCN([C@H]3CCN(c4ccc(C(F)(F)F)nc4)C3)C2)C1 (single isomer, unassigned) [9A*] | 34 | 86 |  |  |
| Cn1nc(C(F)(F)F)cc1[C@H]1CC[C@H](N2CCC[C@@]3(CCS(=O)(=O)C3)C2)CC1 (single isomer, unassigned) [26A*] | 33 | 18 |  |  |
| CC(C)n1nc(C2CC2)nc1[C@H]1CC[C@@H](N2CCC3(C2)CS(=O)(=O)C3)C1 (single isomer, unassigned) [18D*, 6-(3-(3-cyclopropyl-1-isopropyl-1H-1,2,4-triazol-5-yl)cyclopentyl)-2-thia-6-azaspiro[3.4]octane 2,2-dioxide] | 270 | 430 |  |  |
| Cc1nc(C(F)(F)F)ccc1N1CCC(N2CCC3(C2)CS(=O)(=O)C3)CC1 [Compound 29, 6-(1-(2-methyl-6-(trifluoromethyl)pyridin-3-yl)piperidin-4-yl)-2-thia-6-azaspiro[3.4]octane 2,2-dioxide] | 45 | 39 |  |  |
| O=S1(=O)CC2(CCN(C3CCN(c4ncc(C(F)(F)F)cc4F)CC3)C2)C1 [Compound 32, 6-(1-(3-fluoro-5-(trifluoromethyl)pyridin-2-yl)piperidin-4-yl)-2-thia-6-azaspiro[3.4]octane 2,2-dioxide] | 24 | 60 |  |  |
| O=S1(=O)CC2(CCN([C@@H]3CO[C@@H](c4ccc(C(F)(F)F)cc4)C3)C2)C1 (stereo in doubt) [19B*, 6-((3S,5R)-5-(4-(trifluoromethyl)phenyl)tetrahydrofuran-3-yl)-2-thia-6-azaspiro[3.4]octane 2,2-dioxide] | 27 | 49 |  |  |
| Cn1nc(C(F)(F)F)cc1[C@H]1CC[C@H](N2CC[C@@]3(CCS(=O)(=O)C3)C2)CC1 (single isomer, unassigned) [38D*] | 27 |  | 200 |  |
| O=S1(=O)CC2(CCN([C@H]3CCCN(c4ccc(C(F)(F)F)cc4)C3)C2)C1 (single isomer, unassigned) [22B*] | 70 | 110 |  |  |
| Cn1nc(C(F)(F)F)cc1[C@H]1CC[C@H](N2CCC[C@]3(CCS(=O)(=O)C3)C2)CC1 (single isomer, unassigned) [26B*] | 21 | 130 |  |  |
| CCn1nc(C(F)(F)F)cc1[C@H]1CC[C@H](N2CCC3(C2)CS(=O)(=O)C3)CC1 [Compound 15, 6-((1r,4r)-4-(1-Ethyl-3-(trifluoromethyl)-1H-pyrazol-5-yl)cyclohexyl)-2-thia-6-azaspiro[3.4]octane 2,2-dioxide] | 25 | 44 |  |  |
| Cc1cc(C(F)(F)F)ncc1[C@H]1CC[C@H](N2CCC3(C2)CS(=O)(=O)C3)CC1 [Compound 21B, 6-((1r,4r)-4-(4-Methyl-6-(trifluoromethyl)pyridin-3-yl)cyclohexyl)-2-thia-6-azaspiro[3.4]octane 2,2-dioxide] | 48 | 120 |  |  |
| O=S1(=O)CC2(CCN([C@@H]3CC[C@H](c4ccc(C(F)(F)F)nc4)C3)C2)C1 (single isomer, unassigned) [11C*] | 35 | 24 |  |  |
| CC(C)n1nc(C(F)(F)F)cc1[C@H]1CC[C@H](N2CCC3(C2)CS(=O)(=O)C3)CC1 [Compound 8A, 6-((1r,4r)-4-(1-isopropyl-3-(trifluoromethyl)-1H-pyrazol-5-yl)cyclohexyl)-2-thia-6-azaspiro[3.4]octane 2,2-dioxide] | 16 | 71 |  |  |
| O=S1(=O)CC2(CCN([C@H]3CC[C@H](c4cc(C(F)(F)F)nn4C4CCC4)CC3)C2)C1 [Compound 23B, 6-((1r,4r)-4-(1-Cyclobutyl-3-(trifluoromethyl)-1H-pyrazol-5-yl)cyclohexyl)-2-thia-6-azaspiro[3.4]octane 2,2-dioxide] | 21 | 28 |  |  |
| O=S1(=O)CC2(CCN(C3CC[C@H](c4ccc(C(F)(F)F)nc4)C3)C2)C1 (single isomer, unassigned) [11D*] |  | 280 |  | 40 |
| O=S1(=O)CC2(CCN([C@H]3CC[C@H](c4ccc(C(F)(F)F)nc4)CC3)C2)C1 [Compound 14A, 6-((1r,4r)-4-(6-(Trifluoromethyl)pyridin-3-yl)cyclohexyl)-2-thia-6-azaspiro[3.4]octane 2,2-dioxide] | 35 | 16 |  |  |
| O=S1(=O)CC2(CCN([C@H]3CC[C@@H](c4cc(C(F)(F)F)nn4C4CC4)CC3)C2)C1 [Compound 12B, 6-((1s,4s)-4-(1-Cyclopropyl-3-(trifluoromethyl)-1H-pyrazol-5-yl)cyclohexyl)-2-thia-6-azaspiro[3.4]octane 2,2-dioxide] | 29 | 240 |  |  |
| Cn1nc(C(F)(F)F)cc1[C@H]1CC[C@H](N2CCC3(CC2)CS(=O)(=O)C3)CC1 [Compound 25B, 7-((1r,4r)-4-(1-methyl-3-(trifluoromethyl)-1H-pyrazol-5-yl)cyclohexyl)-2-thia-7-azaspiro[3.5]nonane 2,2-dioxide] | 58 | 87 |  |  |
| O=S1(=O)CC2(CCN([C@H]3CC[C@@H](c4cc(C(F)(F)F)nn4C4CC4)CC3)CC2)C1 [Compound 40A, 7-((1r,4r)-4-(1-cyclopropyl-3-(trifluoromethyl)-1H-pyrazol-5-yl)cyclohexyl)-2-thia-7-azaspiro[3.5]nonane 2,2-dioxide] | 32 | 22 |  |  |
| Cn1nc(C(F)(F)F)cc1[C@H]1CC[C@@H](N2CCC3(C2)CS(=O)(=O)C3)CC1 [Compound 2A, 6-((1s,4s)-4-(1-methyl-3-(trifluoromethyl)-1H-pyrazol-5-yl)cyclohexyl)-2-thia-6-azaspiro[3.4]octane 2,2-dioxide] | 20 | 240 |  |  |
| CCn1nc(-c2ccc(C(F)(F)F)nc2)nc1[C@H]1CC[C@@H](N2CCC3(C2)CS(=O)(=O)C3)CC1 [36B*, 6-((1s,4s)-4-(1-ethyl-3-(6-(trifluoromethyl)pyridin-3-yl)-1H-1,2,4-triazol-5-yl)cyclohexyl)-2-thia-6-azaspiro[3.4]octane 2,2-dioxide] | 57 | 72 |  |  |
| O=S1(=O)CC2(CCN([C@@H]3CO[C@H](c4ccc(C(F)(F)F)cc4)C3)C2)C1 (stereo in doubt) [19C*, 6-((3S,5S)-5-(4-(Trifluoromethyl)phenyl)tetrahydrofuran-3-yl)-2-thia-6-azaspiro[3.4]octane 2,2-dioxide] | 34 | 270 |  |  |
| CC(C)n1nc(-c2cncc(C(F)(F)F)c2)cc1[C@H]1CC[C@H](N2CCC3(C2)CS(=O)(=O)C3)C1 (single isomer, unassigned) [13D*] | 71 | 2.2 |  |  |

Source: patent publication US20240398781A1, “SPIROCYCLIC CYCLIC MODULATORS OF CHOLESTEROL BIOSYNTHESIS AND THEIR USE FOR PROMOTING REMYELINATION” (GENENTECH, INC., priority 2021, published 2024)
